The values below come from patent publication US8362017B2, “C-kit modulators and methods of use” (Exelixis, Inc., priority 2003, dated 2013).

Usually IC50 stands for the point on the concentration scale where inhibition reaches its midpoint. A higher IC50 goes with lower potency.

Each structure is given as a SMILES string. Some results are limits rather than exact numbers.

Chain of c-Kit kinase (P10721 26-976): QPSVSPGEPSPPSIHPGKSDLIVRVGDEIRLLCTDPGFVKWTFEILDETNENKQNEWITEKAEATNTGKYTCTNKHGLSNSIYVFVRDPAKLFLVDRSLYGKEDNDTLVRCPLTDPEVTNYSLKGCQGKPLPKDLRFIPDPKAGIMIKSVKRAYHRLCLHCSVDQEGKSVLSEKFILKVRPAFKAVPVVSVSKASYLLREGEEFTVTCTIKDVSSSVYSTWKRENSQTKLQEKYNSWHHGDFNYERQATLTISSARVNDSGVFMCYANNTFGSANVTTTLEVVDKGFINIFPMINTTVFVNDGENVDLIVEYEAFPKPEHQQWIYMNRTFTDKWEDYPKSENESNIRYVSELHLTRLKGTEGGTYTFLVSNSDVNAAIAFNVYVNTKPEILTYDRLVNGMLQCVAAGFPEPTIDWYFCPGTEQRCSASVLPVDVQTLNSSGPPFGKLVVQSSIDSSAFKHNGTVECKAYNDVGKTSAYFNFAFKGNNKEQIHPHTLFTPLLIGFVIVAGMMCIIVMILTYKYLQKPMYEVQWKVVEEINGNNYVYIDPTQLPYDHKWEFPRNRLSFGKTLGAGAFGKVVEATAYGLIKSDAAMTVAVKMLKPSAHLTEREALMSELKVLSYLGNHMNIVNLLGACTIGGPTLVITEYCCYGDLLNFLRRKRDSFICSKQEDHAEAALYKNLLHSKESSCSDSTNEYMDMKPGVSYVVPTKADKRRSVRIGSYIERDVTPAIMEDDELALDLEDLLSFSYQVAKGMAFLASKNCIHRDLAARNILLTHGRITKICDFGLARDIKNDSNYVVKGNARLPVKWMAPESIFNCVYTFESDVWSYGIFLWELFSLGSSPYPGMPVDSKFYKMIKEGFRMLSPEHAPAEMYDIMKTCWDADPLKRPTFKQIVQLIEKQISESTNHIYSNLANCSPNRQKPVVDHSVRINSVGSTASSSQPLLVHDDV

The target of this test is c-Kit kinase (Homo sapiens, UniProt P10721). Put plainly: c-Kit biochemical activity assay (AlphaScreen). The note with it: biotinylated poly(Glu, Tyr) substrate, 1 hr at ambient temperature. On the procedure:
Kinase activity and compound inhibition are investigated using one or more of the three assay formats described below. The ATP concentrations for each assay are selected to be close to the Michaelis-Menten constant (KM) for each individual kinase. Dose-response experiments are performed at 10 different inhibitor concentrations in a 384-well plate format. The data are fitted to four-parameter equation (2) below; where Y is the observed signal, X is the inhibitor concentration, Min is the background signal in the absence of enzyme (0% enzyme activity), Max is the signal in the absence of inhibitor (100% enzyme activity), IC50 is the inhibitor concentration at 50% enzyme inhibition and H represents the empirical Hill's slope to measure the cooperativity. Typically H is close to unity. Y=Min+(Max−Min)/(1+(X/IC50)^H) Equation (2) c-Kit Assay
c-Kit biochemical activity was assessed using AlphaScreen™ (Perldn Elmer) technology, described above. Test compounds, ATP, biotinylated poly(Glu, Tyr) and c-Kit kinase were combined in a volume of 20 μL in a 384-well white, medium binding microtiter plate (Greiner). Reaction mixtures were incubated for 1 hr at ambient temperature. Reactions were quenched by addition of 10 μL of 15-30 mg/mL AlphaScreen bead suspension containing 75 mM Hepes, pH 7.4, 300 mM NaCl, 120 mM EDTA, 0.3% BSA and 0.03% Tween-20. After 16 hr incubation at ambient temperature plates were read using an AlphaQuest reader (Perkin Elmer).
On the technique in general: In Alpha technology, singlet oxygen from a donor bead excites a nearby acceptor bead.
For the compound `O=C(NCc1cccc(-c2cncc3ccccc23)c1)Nc1ccc(Cl)c(C(F)(F)F)c1` [Example 263, N-[4-chloro-3-(trifluoromethyl)phenyl]-N′-[(3-isoquinolin-4-ylphenyl)methyl]urea], the IC50 was in the range of 500 to 5000 nM.
`O=C(NCc1ccc(-c2cccnc2F)cc1)Nc1ccc(Cl)c(C(F)(F)F)c1` [Example 254, N-[4-chloro-3-(trifluoromethyl)phenyl]-N′-{[4-(2-fluoropyridin-3-yl)phenyl]methyl}urea] gave an IC50 of 500 to 5000 nM.
Next, `CC(C)(C)OC(=O)N1CCCC(NC(=O)c2nc(-c3ccc(CNC(=O)Nc4ccc(Cl)c(C(F)(F)F)c4)cc3)cnc2N)C1` (centres unmarked) [Example 240, 1,1-dimethylethyl 3-({[3-amino-6-(4-{[({[4-chloro-3-(trifluoromethyl)phenyl]amino}carbonyl)amino]methyl}phenyl)pyrazin-2-yl]carbonyl}amino)piperidine-1-carboxylate]: 500 to 5000 nM; `O=C(Nc1cc(C(F)(F)F)ccn1)OCc1cccc(-n2cnnn2)n1` [Example 265, [6-(1H-tetrazol-1-yl)pyridin-2-yl]methyl [4-(trifluoromethyl)pyridin-2-yl]carbamate]: 50 to 500 nM.
With `O=C(NCc1cccc(-c2cn[nH]c2)c1)Nc1ccc(Cl)c(C(F)(F)F)c1` [Example 247, N-[4-chloro-3-(trifluoromethyl)phenyl]-N′-{[3-(1H-pyrazol-4-yl)phenyl]methyl}urea] the figure was 50 to 500 nM; with `O=C(Nc1cc(C(F)(F)F)ccn1)OCc1cccc(-n2cnnn2)c1` [Example 257, [3-(1H-tetrazol-1-yl)phenyl]methyl [4-(trifluoromethyl)pyridin-2-yl]carbamate], 50 to 500 nM; with `O=C(Nc1ccc(Cl)c(C(F)(F)F)c1)OCc1cccc(-c2cn[nH]c2)c1` [Example 266, [3-(1H-pyrazol-4-yl)phenyl]methyl [4-chloro-3-(trifluoromethyl)phenyl]carbamate], below 50 nM.
In turn, `CSc1ccc(-c2cccc(CNC(=O)Nc3ccc(Cl)c(C(F)(F)F)c3)c2)nc1` [Example 258, N-[4-chloro-3-(trifluoromethyl)phenyl]-N′-({3-[5-(methylthio)pyridin-2-yl]phenyl}methyl)urea] displayed an IC50 of 500 to 5000 nM.
